Consider two substances from US20250059610A1, “METHODS OF TREATING TUMOR” (priority 2017, published 2025).

In experiment [1] the test system is NSCLC with ≥50% PD-L1 expression. As to conditions: first-line; cited from earlier work.
Experiment [2] concerns recurrent small cell lung cancer (SCLC). Description: Clinical trial of nivolumab alone or with ipilimumab in SCLC, exploratory TMB analysis. The format is in vivo, human. From the text:
Subjects were selects who had previously been diagnosed with SCLC, and who had previously received at least one prior platinum-containing regimen (FIG. 23).
The primary objective was to measure the objective response rate (ORR) by per RECIST v1.1. Secondary objectives included monitoring safety, overall survival (OS), progression free survival (PFS), and duration of response (DOR). Prespecified exploratory objectives included biomarker analysis and health status using the EQ-5D instrument.
TMB was determined by whole exome sequencing, using an Illumina HiSeq 2500 using 2×100-bp paired-end reads, and calculated as the total number of nonsynonymous missense mutations in the tumor. For exploratory analyses, patients were divided into 3 subgroups based on TMB tertile.

Turning to pembrolizumab, in experiment [1], the ORR was 45% and the “median PFS” value is reported as 10.3 months.

“ipilimumab: fully human, IgG1 monoclonal antibody that blocks the binding of CTLA-4 to its B7 ligands”: the values for the ORR in experiment [2] (high TMB), in experiment [2] (low TMB) and in experiment [2] (medium TMB) were around 46.2%, around 22.2% and around 16.0%, respectively.
